In article PMC5641551, “Chemical Proteomics for Target Discovery of Head-to-Tail Cyclized Mini-Proteins” (Frontiers in Chemistry, 2017):

Legend:
[1] = test system: Foxo3a transcriptional activity in HEK293 cells co-transfected with 14-3-3β; assay: Foxo3a luciferase reporter gene assay; assay type: cell-based, human; conditions: for Foxo3a transcriptional activity, effect in words: HEK293, luciferase reporter, PI3K inhibitors as controls, peptide 4 h
Procedure: Jurkat cells were cultured in RPMI medium containing phenol red supplemented with 10% (v/v) heat deactivated fetal calf serum and 100 U/mL penicillin/streptomycin at 37°C in humidified atmosphere of 5% CO2. HEK293 cells were cultured in Dulbecco's modified eagle high glucose medium supplied with 10% fetal calf serum and 100 U per mL penicillin/streptomycin. Cell transfection was carried out by Jetprime® according to the manufacturer's recommendation (Polyplus, Illkirch, France).
Forkhead box protein 3a induced transcriptional activity was measured on transiently transfected HEK293 cells (5 × 10^4). The reporter plasmid encoding luciferase under the control of a promotor containing forkhead responsive elements and the human p-Foxo3a-HA plasmid were gifts of Michael Greenberg provided by the Addgene consortium (#1787 and #1789; Brunet et al., [1999]). The plasmids encoding the mouse p-14-3-3 beta-GST protein and the functional forkhead transcription factor were used in a 1.5-fold amount compared to the reporter construct. The transfection was completed after 6 h and the cells could recover for 4 h in growth medium. The cells were serum starved using 1% (v/v) fetal bovine serum in phenol red free DMEM medium supplemented with antibiotics overnight. After 4 h peptide and 24 h of fusicoccin-A treatment the luciferase assay was developed using luciferase development kit from Promega E151 (Wisconsin, United States) and the luminescence was measured on a synergy H4 plate reader (Biotek). Control compounds were the PI3K inhibitors wortmannin and LY294002 (both Sigma Aldrich). The recorded data were normalized to the non-treated control sample. Significance and IC50-values were calculated from at least two biological replicates using GraphPad Prism. Data analysis was performed by non-linear regression using a four parameter Hill equation.
If not stated in detail for the respective single experiment the statistical tests were performed using GraphPad Prism 5.04 (GraphPad, La Jolla, CA) using one-way ANOVA with Bonferonni or Dunnett's Post-hoc test. The number of technical and biological repeats was justified by analysis of error and reproducibility of results. Significance threshold P < 0.05 was applied to all experiments. For the data shown in Figure 3 three individuals for the in vivo experiments were used and each data point was performed in three technical replicates. The pull down experiments shown in Figures 4A,B were performed a single time and the data represent two technical repeats. Gel lanes were loaded with single (1x) or doubled (2x) amount of pull down proteins for better visibility. The data illustrated in Figures 4C,D were performed in two independent experiments. Silver stained gel lanes were evaluated by loading various amounts, and then the amount with optimized staining contrast was loaded and used for in-gel protein digestion. The pull down experiments shown in Figures 4E,F were performed a single time. The Western Blots and the pull down experiment shown in Figure 5 represent experiments in three and two independent experiments, respectively. Experiments in a well-based format (Figure 6) were performed with three technical and two biological replicates. All data illustrated in this manuscript show the mean ± standard deviation (SD) unless stated otherwise. The MS based protein identifications were performed in two technical analyses for each sample.
Figure 6 Foxo3a luciferase reporter assay. The modulation of the Akt/PI3K/Foxo3a pathway by the cyclotide [T20K]kB1 binding to 14-3-3 proteins was investigated. HEK293 cells were transiently transfected with Foxo3a-Luc plasmid encoding luciferase under a promotor with Foxo response elements, Foxo3a and 14-3-3β. For control the reporter plasmid (basal value) was also co-transfected with the single functional effector proteins 14-3-3β or Foxo3a. Cells were treated under starving conditions with peptide or fusicoccin-A (FC-A) for 4 h or 24 h, respectively. […]

14-3-3 proteins = conditions: cited from earlier work
From the text: There are generally two types of 14-3-3 ligands: (i) inhibitors or (ii) stabilizers. […] In contrast, 14-3-3 stabilizers enforce a protein-protein interaction and they may account for an increased retention of 14-3-3 complexed proteins in the cytosol or other cellular compartments (Ottmann, [2013]; Bier et al., [2015]).

GST-tagged 14-3-3β = assay: co-precipitation of GST-tagged 14-3-3β with cyclotide probe and competitors; assay type: binding; conditions: immunoblot and far Western blot; 2 h at 4°C; competitors 150–500-fold molar excess
Procedure: (§1) Splenocytes or Jurkat cells were lysed with 25 mM Tris-HCl pH 7.4, 40 mM KCl, 2.5 mM MgSO4 2.5 mM CaCl2, 2% (v/v) glycerol, 1 mM EDTA under repeated freeze-thaw cycles and 10 min sonification. All experiments were performed in buffer with 1x complete protease inhibitor cocktail (Hoffman-La Roche, Basel, Switzerland). Cell membranes and debris were pelleted for 30 min at 16,000 × g and the supernatant corresponds to the “soluble cell lysate.” Protein concentration was determined using a bicinchoninic acid assay kit (Thermo Scientific) and DTT (1 mM) was added to keep redox potential constant during binding experiments. Photo-affinity pull down samples were submitted to denaturing sodium dodecyl sulfate polyacrylamide gel electrophoresis (PAGE). For immunoblotting according to earlier published protocols (Gruber et al., [2007]; Bergmayr et al., [2013]) proteins were semi-dry transferred onto a nitrocellulose membrane 0.45 μM (Amersham Protran, GE Healthcare, Austria) using a Fast Semi-dry blotter (Bio-Rad) at 0.25 mA per gel for 1 h. Primary rabbit anti-GFP antibody (1:5,000) was from Invitrogen (A6455), rabbit anti-GST antibody (1:2,500) from Abcam (ab9085), and mouse anti-human calcineurin subunit A antibody (1:2,000) clone BE2.1 from eBioscience. Secondary ECL anti-mouse (NA931V) or ECL anti-rabbit (NA934VS) IgG antibodies (1:10,000) were conjugated with horse radish peroxidase (GE Healthcare). Chemo-luminescence signals were detected on an imaging system FluorChem HD2 (Alpha Innotech, CA, United States). For silver staining protein gels were treated immediately after electrophoresis with fixing solution EtOH/ddH2O/acetic acid 50/40/10% (v/v/v) for 20 min. Gels had to be washed acid free, first with 50% (v/v) EtOH for 10 min and with ddH2O for 2 h. Gels were exposed to sensitization buffer 0.025% Na2S2O3 in ddH2O for 3 min, followed by 2 min wash with ddH2O. Gels were silver loaded using a 0.15% AgNO3 solution for 45 min in the dark. The protein bands were stained in development buffer formaldehyde/Na2CO3 0.04/2% (v/w) under rigorous shaking. The reaction was quenched with 5% (v/v) acetic acid solution and the gels were stored until further processing in the stopping buffer at 4°C. Pixel quantification was carried out using ImageJ v1.47 (National Institute for Health).
Biotin-LC-LC-labeled (ThermoFisher) peptides (1–5 nmoles) with or without ([…]) were incubated with Jurkat cell or murine splenocyte cell lysates (150–500 μg proteins) for 2 h at 4°C in the presence of protease inhibitors. UV-activation of photo-crosslinking moiety benzophenone was induced by irradiation at 360 nm on ice for 15 min (Stratalinker, Stratagene, CA, United States). […]

[2] = test system: myelin oligodendrocyte glycoprotein (MOG)-immunized mouse splenocytes; assay: anti-proliferation assay of MOG-restimulated splenocytes from 2D2 mice; assay type: cell-based; conditions: summary in words; [T20K,W23Bpa]kB1 versus [T20K]kB1, 4 μM
Procedure: Biological integrity of probes was determined using their reported immunosuppressive activity (Grundemann et al., [2013]; Thell et al., [2016]). Briefly, activity was measured in isolated lymphocytes derived from self-donated human venous blood or mouse splenocytes derived from 2D2 myelin oligodendrocyte glycoprotein specific T-cell receptor transgenic mice on a C57Bl/6 background [C57Bl/6-Tg(Tcra2D2,Tcrb2D2) Kuch/J]. These mice develop spontaneous experimental autoimmune encephalomyelitis, a mouse model of multiple sclerosis. Bioactivity was assessed by T-cell proliferation using FACS or cytokine concentration analysis of interleukin-2 in the supernatant of ex vivo re-stimulated splenocytes for 72 h using an ELISA kit and antibodies from eBioscience® (Grundemann et al., [2013]; Thell et al., [2016]). All experiments were approved according to the European Community rules of animal care with the permission of the Austrian Ministry of Science (BMWF-66.009/0241-II/3B/2011).
If not stated in detail for the respective single experiment the statistical tests were performed using GraphPad Prism 5.04 (GraphPad, La Jolla, CA) using one-way ANOVA with Bonferonni or Dunnett's Post-hoc test. […] Silver stained gel lanes were evaluated by loading various amounts, and then the amount with optimized staining contrast was loaded and used for in-gel protein digestion. […]

[3] = test system: 14-3-3 proteins / 25 kDa protein band in murine splenocyte lysates; assay: photo-affinity pull down, splenocyte lysate, with competitors; assay type: binding, mouse; conditions: for competition effect for 14-3-3 proteins (order): competitors at 100-fold molar excess versus bait [T20K,W23Bpa]kB1, in-gel digestion and proteomics
Procedure: as §1
Biotin-LC-LC-labeled (ThermoFisher) peptides (1–5 nmoles) with or without (non-biotinylated) competitor (20–100-fold molar excess) were incubated with Jurkat cell or murine splenocyte cell lysates (150–500 μg proteins) for 2 h at 4°C in the presence of protease inhibitors. UV-activation of photo-crosslinking moiety benzophenone was induced by irradiation at 360 nm on ice for 15 min (Stratalinker, Stratagene, CA, United States). […]

Compound	Foxo3a transcriptional activity, effect in words [1]	binding of probe [T20K,W23Bpa]kB1 to 14-3-3β in presence of competitor (GST-tagged 14-3-3β)	competition effect for 14-3-3 proteins (order) [3]	further results
O=c1cc(N2CCOCC2)oc2c(-c3ccccc3)cccc12 [LY294002, reference compound]	increased transcriptional activity			
C=CC(C)(C)OC[C@H]1O[C@H](O[C@@H]2C3=C([C@H](C)COC(C)=O)C[C@H](O)[C@]3(C)/C=C3/[C@@H](COC)CC[C@H]3[C@@H](C)[C@H]2O)[C@H](O)[C@@H](OC(C)=O)[C@@H]1O [fusicoccin-A, reference compound]				effect as 14-3-3 stabilizer (14-3-3 proteins; ref Skwarczynska et al., 2013, Bier et al., 2015, Milroy et al.): enforce protein complex formation of 14-3-3s with transcription factors; IC50 ([1]; HEK293 transfected with Foxo3a-Luc, Foxo3a and 14-3-3β, fusicoccin-A treatment 24 h, IC50 ± SD, two independent experiments, four parameter Hill fit, read-out: IC50, reduction of luciferase signal): 39.1 ± 2.34 µM
NC(=O)c1ncn([C@@H]2O[C@H](CO)[C@@H](O)[C@H]2O)c1O [mizoribine]				modulation of 14-3-3 protein function (14-3-3 proteins; ref Kawasaki, 2009): modulate 14-3-3 protein function
COC[C@H]1OC(=O)c2coc3c2[C@@]1(C)C1=C(C3=O)[C@@H]2CCC(=O)[C@@]2(C)C[C@H]1OC(C)=O [wortmannin, reference compound]	increased transcriptional activity			
CGETCVGGTCNTPGCKCSXPVCTRNGLPV (bicyclic or more) [[T20K,W23Bpa]kB1]		significantly altered	competition effect in the order [T20K]kB1 < [T20K,W23Bpa]kB1 < R18	biological activity of probe [2]: retained biological activity
PHCVPRDLSWLDLEANMCLP [R18, reference compound]		significantly altered	competition effect in the order [T20K]kB1 < [T20K,W23Bpa]kB1 < R18	effect as 14-3-3 inhibitor on Foxo3a (14-3-3 proteins; ref Arrendale et al., 2012): increase Foxo3a nuclear import to induce pro-apoptotic transcriptional activity; effect on intensity of protein bands ([3]; competitor at 100-fold molar excess, silver stained gel): did not alter the intensity of protein bands throughout the sample
